Among the data in patent publication US20220332700A1, “NOVEL APOPTOSIS SIGNAL-REGULATING KINASE 1 INHIBITORS” (MANKIND PHARMA LTD, priority 2019, published 2022) are IC50 values, retold here.

A word on the IC50: it is the midpoint of a concentration-inhibition curve.

Assay [1] concerns the target T1, recombinant ASK1 (Homo sapiens, UniProt Q99683).
T1 construct: purchased Carna Biosciences
Kind of assay: ASK1 Biochemical Assay (HTRF KinEASE-STK S3). The following applies: ATP 100 μM; read-out: Biochemical Assay IC50. An outline of the steps:
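Recombinant ASK1 (5 ng) preincubated with compound 1 h at 23 °C in MOPS pH 7 buffer with Mg-acetate, DTT, NP40, glycerol, BSA and 1% DMSO. Inhibition calculated against vehicle after substrate-blank subtraction.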
For orientation: In TR-FRET formats the signal depends on donor and acceptor labels being close together.

Assay [2] deals with T2, Human ASK1 (Homo sapiens, UniProt Q99683).
T2 construct: expressed in transfected cells; host or cells: HEK293T-AP1
T2 sequence (Q99683 1-1374): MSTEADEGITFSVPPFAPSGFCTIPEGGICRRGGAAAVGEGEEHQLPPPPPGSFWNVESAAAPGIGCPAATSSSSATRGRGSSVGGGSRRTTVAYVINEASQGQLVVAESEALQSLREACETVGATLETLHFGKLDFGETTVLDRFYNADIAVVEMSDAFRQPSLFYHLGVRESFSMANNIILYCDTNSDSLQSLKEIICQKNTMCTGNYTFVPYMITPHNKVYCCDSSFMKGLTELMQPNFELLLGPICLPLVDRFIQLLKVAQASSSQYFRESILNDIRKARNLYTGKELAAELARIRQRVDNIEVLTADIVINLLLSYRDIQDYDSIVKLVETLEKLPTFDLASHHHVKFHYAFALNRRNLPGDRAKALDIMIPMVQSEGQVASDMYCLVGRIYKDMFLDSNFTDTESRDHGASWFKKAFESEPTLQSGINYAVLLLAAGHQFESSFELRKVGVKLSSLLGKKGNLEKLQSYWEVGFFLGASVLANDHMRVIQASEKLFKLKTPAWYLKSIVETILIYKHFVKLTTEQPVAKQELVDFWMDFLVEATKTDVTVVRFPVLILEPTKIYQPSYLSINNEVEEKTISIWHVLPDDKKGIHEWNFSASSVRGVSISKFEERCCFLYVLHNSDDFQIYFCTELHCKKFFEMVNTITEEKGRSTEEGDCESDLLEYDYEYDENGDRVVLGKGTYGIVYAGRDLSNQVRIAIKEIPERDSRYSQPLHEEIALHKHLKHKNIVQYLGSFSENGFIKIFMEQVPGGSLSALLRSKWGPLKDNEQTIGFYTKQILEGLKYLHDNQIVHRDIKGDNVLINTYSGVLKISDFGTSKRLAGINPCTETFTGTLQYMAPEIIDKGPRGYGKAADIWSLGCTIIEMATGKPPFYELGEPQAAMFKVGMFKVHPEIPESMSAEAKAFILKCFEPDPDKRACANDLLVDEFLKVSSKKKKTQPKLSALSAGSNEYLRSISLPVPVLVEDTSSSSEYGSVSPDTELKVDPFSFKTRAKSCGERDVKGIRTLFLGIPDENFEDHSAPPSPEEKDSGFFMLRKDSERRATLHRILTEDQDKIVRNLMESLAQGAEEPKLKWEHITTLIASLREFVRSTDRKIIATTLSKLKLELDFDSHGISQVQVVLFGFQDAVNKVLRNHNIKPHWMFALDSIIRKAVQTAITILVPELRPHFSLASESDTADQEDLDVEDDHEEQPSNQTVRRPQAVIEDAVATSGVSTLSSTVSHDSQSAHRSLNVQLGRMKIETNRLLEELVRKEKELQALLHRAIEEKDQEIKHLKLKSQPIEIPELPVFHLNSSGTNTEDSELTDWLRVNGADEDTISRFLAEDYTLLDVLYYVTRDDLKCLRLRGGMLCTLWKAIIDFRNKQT
The assay can be described thus: ASK1 Cell Based Assay (phospho p38 read out in hASK1 transfected HEK293T-AP1 cells). The conditions noted are these: HEK293T-AP1 cells, 1 mM hydrogen peroxide, phospho p38; read-out: Cell Based Assay IC50. An outline of the steps:
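HEK293T-AP1 cells transfected with hASK1, after 24 h treated with compounds for 24 h (0.2% DMSO), then stimulated with 1 mM H2O2 for 1 h with compounds present.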

Turning to `CC(C)n1cnnc1-c1cccc(N2CCN(c3ccc(N4CCC(C#N)C4)cc3)C2=O)n1` (stereo not drawn) [Example 1091, 1-(4-(3-(6-(4-isopropyl-4H-1,2,4-triazol-3-yl)pyridin-2-yl)-2-oxoimidazolidin-1-yl)phenyl)pyrrolidine-3-carbonitrile], the results for the IC50 in assay [1] and in assay [2] were less than 100 nM and greater than 1000 nM, respectively.
For `CC(C)n1cnnc1-c1cccc(N2CCN(c3ccc(N4CCN(C)CC4)cc3)C2=O)n1` [Example 1092, 1-(6-(4-isopropyl-4H-1,2,4-triazol-3-yl)pyridin-2-yl)-3-(4-(4-methylpiperazin-1-yl)phenyl)imidazolidin-2-one], the IC50 in assay [1] was less than 100 nM; in assay [2], greater than 1000 nM.
In the case of `CC(C)n1cnnc1-c1cccc(N2CCN(c3ccc(N4CC(C(N)=O)C4)cc3)C2=O)n1` [Example 1093, 1-(4-(3-(6-(4-isopropyl-4H-1,2,4-triazol-3-yl)pyridin-2-yl)-2-oxoimidazolidin-1-yl)phenyl)azetidine-3-carboxamide], the IC50 is less than 100 nM in assay [1] and greater than 100 nM in assay [2].
Regarding `CC(C)n1cnnc1-c1cccc(N2CCN(c3ccc(N4CC(NC5CC5)C4)cc3)C2=O)n1` [Example 1094, 1-(4-(3-(cyclopropylamino)azetidin-1-yl)phenyl)-3-(6-(4-isopropyl-4H-1,2,4-triazol-3-yl)pyridin-2-yl)imidazolidin-2-one], the IC50 in assay [1] was less than 100 nM; in assay [2] it was greater than 1000 nM.
For `CC(C)n1cnnc1-c1cccc(N2CCN(c3ccc(C(=O)N4CC(C#N)C4)cc3)C2=O)n1` [Example 1095, 1-(4-(3-(6-(4-isopropyl-4H-1,2,4-triazol-3-yl)pyridin-2-yl)-2-oxoimidazolidin-1-yl)benzoyl)azetidine-3-carbonitrile], in that order: less than 100 nM and greater than 1000 nM.
On the same counts, the results for `CC(C)n1cnnc1-c1cccc(N2CCN(c3ccc(N4CC(F)C4)cc3)C2=O)n1` [Example 1096, 1-(4-(3-fluoroazetidin-1-yl)phenyl)-3-(6-(4-isopropyl-4H-1,2,4-triazol-3-yl)pyridin-2-yl)imidazolidin-2-one] are less than 100 nM and greater than 100 nM.
On the same counts, the results for `CC(C)n1cnnc1-c1cccc(N2CCN(c3ccc(C(C#N)N4CCOCC4)cc3)C2=O)n1` (stereo not drawn) [Example 1098, 2-(4-(3-(6-(4-isopropyl-4H-1,2,4-triazol-3-yl)pyridin-2-yl)-2-oxoimidazolidin-1-yl)phenyl)-2-morpholinoacetonitrile] are less than 100 nM and greater than 1000 nM.
Regarding `CC(C)n1cnnc1-c1cccc(N2CCN(c3ccc(N4CCOCC4)nc3)C2=O)n1` [Example 1101, 1-(6-(4-isopropyl-4H-1,2,4-triazol-3-yl)pyridin-2-yl)-3-(6-morpholinopyridin-3-yl)imidazolidin-2-one], the IC50 is less than 50 nM in assay [1] and 190 nM in assay [2].
For `CC(C)n1cnnc1-c1cccc(N2CCN(c3cnc(N4CCOCC4)nc3)C2=O)n1` [Example 1103, 1-(6-(4-isopropyl-4H-1,2,4-triazol-3-yl)pyridin-2-yl)-3-(2-morpholinopyrimidin-5-yl)imidazolidin-2-one], in that order: less than 100 nM and greater than 100 nM.
As for `CC(C)n1cnnc1-c1cccc(N2CCN(c3ccc(-n4ccnc4)nc3)C2=O)n1` [Example 1104, 1-(6-(1H-imidazol-1-yl)pyridin-3-yl)-3-(6-(4-isopropyl-4H-1,2,4-triazol-3-yl)pyridin-2-yl)imidazolidin-2-one], the IC50 in assay [1] is less than 100 nM; in assay [2] it was greater than 100 nM.
For `CC(C)n1cnnc1-c1cccc(N2CCN(c3ccc(N(C)C)nc3)C2=O)n1` [Example 1105, 1-(6-(dimethylamino)pyridin-3-yl)-3-(6-(4-isopropyl-4H-1,2,4-triazol-3-yl)pyridin-2-yl)imidazolidin-2-one], in that order: less than 100 nM and greater than 100 nM.
For the compound `CNC(=O)c1ccc(N2CCN(c3cccc(-c4nncn4C(C)C)n3)C2=O)cn1` [Example 1106, 5-(3-(6-(4-isopropyl-4H-1,2,4-triazol-3-yl)pyridin-2-yl)-2-oxoimidazolidin-1-yl)-N-methylpyridine-2-carboxamide], the IC50 in assay [1] was less than 100 nM; in assay [2], greater than 1000 nM.
On the same counts, the results for `CC(C)n1cnnc1-c1cccc(N2CCN(c3ccc(N4CC(C#N)C4)nc3)C2=O)n1` [Example 1107, 1-(5-(3-(6-(4-isopropyl-4H-1,2,4-triazol-3-yl)pyridin-2-yl)-2-oxoimidazolidin-1-yl)pyridin-2-yl)azetidine-3-carbonitrile] are less than 50 nM and less than 100 nM.
In the case of `CC(C)n1cnnc1-c1cccc(N2CCN(c3cccc(N4CCOCC4)c3)C2=O)n1` [Example 1108, 1-(6-(4-isopropyl-4H-1,2,4-triazol-3-yl)pyridin-2-yl)-3-(3-morpholinophenyl)imidazolidin-2-one], the IC50 is greater than 100 nM in assay [1] and greater than 1000 nM in assay [2].
Turning to `CC(C)n1cnnc1-c1cccc(N2CCN(c3ccc(C(=O)NC4CC4)nc3)C2=O)n1` [Example 1109, N-cyclopropyl-5-(3-(6-(4-isopropyl-4H-1,2,4-triazol-3-yl)pyridin-2-yl)-2-oxoimidazolidin-1-yl)pyridine-2-carboxamide], the IC50 is less than 100 nM in assay [1] and greater than 1000 nM in assay [2].
On the same counts, the results for `CC(C)NC(=O)c1ccc(N2CCN(c3cccc(-c4nncn4C(C)C)n3)C2=O)cn1` [Example 1110, N-isopropyl-5-(3-(6-(4-isopropyl-4H-1,2,4-triazol-3-yl)pyridin-2-yl)-2-oxoimidazolidin-1-yl)pyridine-2-carboxamide] are less than 100 nM and greater than 1000 nM.
For `CC(C)n1cnnc1-c1cccc(N2CCN(Cc3ccc(N4CCOCC4)cc3)C2=O)n1` [Example 1112, 1-(4-morpholinobenzyl)-3-(6-(4-isopropyl-4H-1,2,4-triazol-3-yl)pyridin-2-yl)imidazolidin-2-one], in that order: less than 100 nM and greater than 1000 nM.
On the same counts, the results for `CC(C)n1cnnc1-c1cccc(N2CCN(c3ccc(C(C#N)N4CCOCC4)nc3)C2=O)n1` (stereo not drawn) [Example 1113, 2-(5-(3-(6-(4-isopropyl-4H-1,2,4-triazol-3-yl)pyridin-2-yl)-2-oxoimidazolidin-1-yl)pyridin-2-yl)-2-morpholinoacetonitrile] are less than 100 nM and greater than 1000 nM.
As to `CC(c1ccc(N2CCN(c3cccc(-c4nncn4C(C)C)n3)C2=O)cc1)N1CCOCC1` (stereo not drawn) [Example 1114, 1-(6-(4-isopropyl-4H-1,2,4-triazol-3-yl)pyridin-2-yl)-3-(4-(1-morpholinoethyl)phenyl)imidazolidin-2-one], the IC50 in assay [1] was less than 10 nM; in assay [2] it was greater than 1000 nM.
On the same counts, the results for `CC(C)n1cnnc1-c1cccc(N2CCN(c3ccc(N4CC(C(N)=O)C4)nc3)C2=O)n1` [Example 1115, 1-(5-(3-(6-(4-isopropyl-4H-1,2,4-triazol-3-yl)pyridin-2-yl)-2-oxoimidazolidin-1-yl)pyridin-2-yl)azetidine-3-carboxamide] are less than 100 nM and greater than 1000 nM.
For `CNC(=O)C1CCN(c2ccc(N3CCN(c4cccc(-c5nncn5C(C)C)n4)C3=O)cn2)CC1` [Example 1116, 1-(5-(3-(6-(4-isopropyl-4H-1,2,4-triazol-3-yl)pyridin-2-yl)-2-oxoimidazolidin-1-yl)pyridin-2-yl)-N-methylpiperidine-4-carboxamide], in that order: less than 50 nM and less than 100 nM.
